The assay deals with T1, CpG methyltransferase (M.SssI MTase) (Spiroplasma monobiae, UniProt P15840).
T1 construct: gene sssIM
The assay can be described thus: coupled GlaI / RNase HII cleavage, Cy5 release from AuNP, single-molecule TIRF counting. The format is biochemical. The settings on record: 600 nM hairpin DNA HS1; 320 μM SAM; 100 U/mL M.SssI; NEBuffer 2; 37 °C, 2 h; coupled assay; free nucleoside added, covalent mechanism only cited.

T1 sequence (P15840 whole entry): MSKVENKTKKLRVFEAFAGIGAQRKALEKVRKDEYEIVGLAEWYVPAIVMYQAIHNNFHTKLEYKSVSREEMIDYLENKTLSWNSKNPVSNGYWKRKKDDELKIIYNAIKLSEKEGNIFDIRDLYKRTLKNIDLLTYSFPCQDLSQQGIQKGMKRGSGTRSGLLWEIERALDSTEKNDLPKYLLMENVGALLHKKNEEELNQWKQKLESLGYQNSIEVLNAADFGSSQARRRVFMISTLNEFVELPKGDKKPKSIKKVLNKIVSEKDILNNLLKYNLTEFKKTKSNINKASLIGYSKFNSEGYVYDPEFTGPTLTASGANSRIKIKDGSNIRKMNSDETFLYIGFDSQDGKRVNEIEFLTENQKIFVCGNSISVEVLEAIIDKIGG

What is called IC50 is the concentration that inhibits the measured activity by half. Take `Nc1ncn([C@H]2C[C@H](O)[C@@H](CO)O2)c(=O)n1` [decitabine]: the IC50 turned out to be 640 nM. That is a sub-micromolar value.
